US20260232682A1, “GSPT1 DEGRADER COMPOUNDS” (Captor Therapeutics S.A., priority 2023, published 2026)

What was measured:
[1] = target: [GSPT1]-[compound of formula (I)]-[CRBN/DDB1] complex (Homo sapiens, UniProt P15170+Q96SW2); experiment: AlphaLISA ternary complex formation assay (GSPT1); type: binding; details: 0.5 h; 1 μM compound; normalized to reference compound CC-885; read-out: Normalized AlphaLISA ternary complex average signal at 1 μM molecule
Summary of the method: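 Biotinylated GSPT1 on streptavidin donor beads and 6×His-CRBN/DDB1 on anti-His acceptor beads (each 200 nM before mixing) in HBS pH 7.4 with 0.1% Tween-20 and 1 mM DTT, 2% DMSO final, 30 min at 25 °C. AlphaLISA luminescence is normalized between DMSO background and the reference compound's maximum.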

[2] = target: T1, [IKZF1 ZF2]-[compound]-[CRBN/DDB1] ternary complex (Homo sapiens, UniProt Q13422+Q96SW2); experiment: AlphaLISA assay for off-target recruitment detection, IKZF1 ZF2; type: binding; details: 1 μM compound; normalized to Lenalidomide; read-out: Normalized ternary complex response, IKZF1 ZF2
T1 construct: IKZF1 ZF2
Summary of the method: (§1)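 Neo-substrate with 40 μg/ml donor beads and 200 nM 6×His-CRBN/DDB1 with 40 μg/ml anti-His acceptor beads were each prepared in PBS pH 7.4 with Tween-20 and 1 mM DTT, preincubated 30 min at RT, then mixed. Compounds at 2% DMSO were incubated 30 min at 25 °C, read at 680/615 nm, and normalised between DMSO background and reference glue maximum.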

GSPT1-HiBiT HEK293 cells = experiment: Cell Viability-CTG assay accompanying the Nano-Glo HiBiT assay; type: cell-based; details: 6 hours treatment, viability of GSPT1-HiBiT HEK293 cells
Method: In parallel, the Cell Viability-CTG assay was performed to ensure that the potential decrease of the luminescent signal observed in the Nano-Glo HiBiT assay is a result of protein degradation and not a result of decreasing cell viability. For CTG assay accompanying the Nano-Glo HiBiT assay, cells were cultured, seeded and treated as described above. After 6 hours of incubation (37° C., 5% CO2), plates were removed from the incubator and let to equilibrate to RT. Luminescent signal detection was conducted using the CellTiter-Glo Lumiescent Cell Viability Assay (Promega, cat. nr G7573). 10 μL of the Cell Titer Glo reagent was added per well, plates were shaken to facilitate lysis (460 rpm, 4 min, RT) and incubated in the dark for the following 8 min. Luminescence was read using the CLARIOstar multimode plate reader (BMG LABTECH). The raw data (the relative luminescence unit values, RLU) were uploaded under the relevant protocol and analysed in CDDVault data management platform, in a manner similar to the description above. The Mean Minimum values were calculated in CDDVault using non-linear regression and appropriate equations.

[3] = target: T2, [SALL4 ZF2]-[compound]-[CRBN/DDB1] ternary complex (Homo sapiens, UniProt Q96SW2+Q9UJQ4); experiment: AlphaLISA assay for off-target recruitment detection, SALL4 ZF2; type: binding; details: 1 μM compound; normalized to Lenalidomide; read-out: Normalized ternary complex response, SALL4 ZF2
T2 construct: SALL4 ZF2
Summary of the method: as §1

[4] = target: CRBN/DDB1 protein complex (Homo sapiens, UniProt Q96SW2); experiment: CRBN displacement TR-FRET assay; details: Thalidomide-Red tracer, 6×His-CRBN/DDB1; read-out: CRBN binding Ki
Summary of the method: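 Test compound at various concentrations competed with 6.8 nM Thalidomide-Red tracer for 5 nM 6×His-CRBN/DDB1, detected with 0.5 nM anti-His-Eu cryptate in buffer with 1 mM DTT and 1% DMSO. Incubation ran 180 min at room temperature with a time-resolved fluorescence read-out. IC50 values were converted to Ki by Cheng–Prusoff using tracer Kd and protein and tracer concentrations.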

[5] = target: T3, [IKZF2 ZF2]-[compound]-[CRBN/DDB1] ternary complex (Homo sapiens, UniProt Q96SW2+Q9UKS7); experiment: AlphaLISA assay for off-target recruitment detection, IKZF2 ZF2; type: binding; details: 1 μM compound; normalized to Helios modulator; read-out: Normalized ternary complex response, IKZF2 ZF2
T3 construct: IKZF2 ZF2
Summary of the method: as §1

T1 sequence (Q13422 145-167 limits assumed): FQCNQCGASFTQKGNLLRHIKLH
T1 sequence (Q96SW2 whole entry): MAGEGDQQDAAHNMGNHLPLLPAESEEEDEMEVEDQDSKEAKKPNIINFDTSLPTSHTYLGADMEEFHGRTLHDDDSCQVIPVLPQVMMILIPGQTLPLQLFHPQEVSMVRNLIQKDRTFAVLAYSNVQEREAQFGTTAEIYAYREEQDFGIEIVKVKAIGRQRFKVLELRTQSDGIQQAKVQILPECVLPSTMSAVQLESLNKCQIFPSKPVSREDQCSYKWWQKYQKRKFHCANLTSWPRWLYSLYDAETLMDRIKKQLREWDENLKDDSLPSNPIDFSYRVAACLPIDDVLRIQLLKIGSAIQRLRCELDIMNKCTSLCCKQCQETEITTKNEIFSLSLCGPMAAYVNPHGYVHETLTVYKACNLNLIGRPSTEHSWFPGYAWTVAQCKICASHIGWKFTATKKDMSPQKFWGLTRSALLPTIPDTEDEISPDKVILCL
T1 sequence (Q16531 whole entry partner): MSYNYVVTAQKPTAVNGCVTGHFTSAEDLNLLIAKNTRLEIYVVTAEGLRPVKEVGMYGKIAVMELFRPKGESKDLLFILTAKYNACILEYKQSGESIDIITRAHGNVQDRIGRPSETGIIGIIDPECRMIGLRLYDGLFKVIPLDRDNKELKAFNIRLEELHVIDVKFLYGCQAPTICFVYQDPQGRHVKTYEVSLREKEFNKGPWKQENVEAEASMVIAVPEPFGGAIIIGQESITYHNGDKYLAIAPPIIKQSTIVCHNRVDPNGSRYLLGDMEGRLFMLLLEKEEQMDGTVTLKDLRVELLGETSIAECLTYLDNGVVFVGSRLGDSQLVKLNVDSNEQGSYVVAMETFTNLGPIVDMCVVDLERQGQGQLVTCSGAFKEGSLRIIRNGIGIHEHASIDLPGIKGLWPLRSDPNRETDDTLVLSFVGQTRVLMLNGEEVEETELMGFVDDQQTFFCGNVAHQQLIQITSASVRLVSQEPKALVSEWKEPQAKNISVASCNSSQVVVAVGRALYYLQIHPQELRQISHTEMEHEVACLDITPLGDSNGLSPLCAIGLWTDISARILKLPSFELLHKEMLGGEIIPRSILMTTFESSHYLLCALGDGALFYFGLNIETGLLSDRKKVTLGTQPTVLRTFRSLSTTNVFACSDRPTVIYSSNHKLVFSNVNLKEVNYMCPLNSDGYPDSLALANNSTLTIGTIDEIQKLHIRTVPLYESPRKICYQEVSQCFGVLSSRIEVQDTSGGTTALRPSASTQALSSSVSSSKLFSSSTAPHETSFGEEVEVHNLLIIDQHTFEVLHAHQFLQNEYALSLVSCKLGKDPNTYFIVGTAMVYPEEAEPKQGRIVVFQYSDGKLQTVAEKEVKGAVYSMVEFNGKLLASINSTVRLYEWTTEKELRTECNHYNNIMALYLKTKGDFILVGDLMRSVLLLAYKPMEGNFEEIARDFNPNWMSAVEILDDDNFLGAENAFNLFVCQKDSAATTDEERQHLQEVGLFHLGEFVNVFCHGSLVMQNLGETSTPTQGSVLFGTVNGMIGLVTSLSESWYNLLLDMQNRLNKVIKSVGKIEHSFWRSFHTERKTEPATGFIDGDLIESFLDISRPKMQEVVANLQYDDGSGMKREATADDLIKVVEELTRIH
Sequence of [GSPT1]-[compound of formula (I)]-[CRBN/DDB1] complex (P15170 whole entry): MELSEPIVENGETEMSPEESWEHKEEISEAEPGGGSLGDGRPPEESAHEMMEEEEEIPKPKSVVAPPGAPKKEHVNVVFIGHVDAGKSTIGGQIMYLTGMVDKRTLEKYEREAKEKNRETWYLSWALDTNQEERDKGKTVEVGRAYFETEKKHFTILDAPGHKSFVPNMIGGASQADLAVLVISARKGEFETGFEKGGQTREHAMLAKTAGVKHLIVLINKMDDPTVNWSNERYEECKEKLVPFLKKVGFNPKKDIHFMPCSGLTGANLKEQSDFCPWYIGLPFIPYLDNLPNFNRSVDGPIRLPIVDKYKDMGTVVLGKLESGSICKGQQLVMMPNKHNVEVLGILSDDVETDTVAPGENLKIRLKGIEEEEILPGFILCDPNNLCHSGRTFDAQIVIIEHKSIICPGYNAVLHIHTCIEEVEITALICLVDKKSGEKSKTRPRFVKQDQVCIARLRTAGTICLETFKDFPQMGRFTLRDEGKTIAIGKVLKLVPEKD
Sequence of [GSPT1]-[compound of formula (I)]-[CRBN/DDB1] complex (Q96SW2 whole entry): as the sequence (Q96SW2 whole entry) above
Sequence of [GSPT1]-[compound of formula (I)]-[CRBN/DDB1] complex (Q16531 whole entry partner): as the sequence (Q16531 whole entry partner) above
T2 sequence (Q9UJQ4 410-432 limits assumed): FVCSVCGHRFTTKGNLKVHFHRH
T2 sequence (Q96SW2 whole entry): as the sequence (Q96SW2 whole entry) above
T2 sequence (Q16531 whole entry partner): as the sequence (Q16531 whole entry partner) above
Sequence of CRBN/DDB1 protein complex (Q96SW2 whole entry, species assumed): as the sequence (Q96SW2 whole entry) above
Sequence of CRBN/DDB1 protein complex (Q16531 whole entry partner, species assumed): as the sequence (Q16531 whole entry partner) above
T3 sequence (Q9UKS7 140-162 limits assumed): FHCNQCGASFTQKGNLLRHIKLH
T3 sequence (Q96SW2 whole entry): as the sequence (Q96SW2 whole entry) above
T3 sequence (Q16531 whole entry partner): as the sequence (Q16531 whole entry partner) above

Compound	activation at 1 µM [1] [%]	activation at 1 µM [2] [%]	activation at 1 µM [3] [%]	Ki [4] [nM]	activation at 1 µM [5] [%]	CTG assay Mean minimum (GSPT1-HiBiT HEK293 cells)
Cc1nc2cc(COC(=O)Nc3cc(Cl)c(C)c(CN4CCOCC4)c3)ccc2cc1C1CCC(=O)NC1=O (stereo not drawn) [Compound 17, (3-(2,6-dioxopiperidin-3-yl)-2-methylquinolin-7-yl)methyl (3-chloro-4-methyl-5-(morpholinomethyl)phenyl)carbamate]	10 to 50	< 10	< 10	< 500	< 10	++++ (++++≥75% of viability of the HiBiT-GSPT1 HEK293 cells)
Cc1nc2cc(COC(=O)Nc3ccc(C(F)(F)F)c(Cl)c3)ccc2cc1C1CCC(=O)NC1=O (stereo not drawn) [Compound 18, (3-(2,6-dioxopiperidin-3-yl)-2-methylquinolin-7-yl)methyl (3-chloro-4-(trifluoromethyl)phenyl)carbamate]	10 to 50	< 10	< 10	500 to 1000	< 10	++++ (++++≥75% of viability of the HiBiT-GSPT1 HEK293 cells)
Cc1nc2cc(COC(=O)Nc3cccc(OC(F)(F)F)c3)ccc2cc1C1CCC(=O)NC1=O (stereo not drawn) [Compound 19, (3-(2,6-dioxopiperidin-3-yl)-2-methylquinolin-7-yl)methyl (3-(trifluoromethoxy)phenyl)carbamate]	10 to 50	< 10	< 10	> 1000	< 10	++++ (++++≥75% of viability of the HiBiT-GSPT1 HEK293 cells)
Cc1nc2cc(COC(=O)Nc3ccc(-c4ccccc4)nc3)ccc2cc1C1CCC(=O)NC1=O (stereo not drawn) [Compound 20, (3-(2,6-dioxopiperidin-3-yl)-2-methylquinolin-7-yl)methyl (6-phenylpyridin-3-yl)carbamate]	10 to 50	< 10	< 10	< 500	< 10	++++ (++++≥75% of viability of the HiBiT-GSPT1 HEK293 cells)
COc1cc(C)c(Cl)cc1NC(=O)OCc1ccc2cc(C3CCC(=O)NC3=O)c(C)nc2c1 (stereo not drawn) [Compound 21, (3-(2,6-dioxopiperidin-3-yl)-2-methylquinolin-7-yl)methyl (5-chloro-2-methoxy-4-methylphenyl)carbamate]	> 50	< 10	< 10	500 to 1000	< 10	++++ (++++≥75% of viability of the HiBiT-GSPT1 HEK293 cells)
Cc1nc2cc(COC(=O)Nc3cc(C(C)(C)C)no3)ccc2cc1C1CCC(=O)NC1=O (stereo not drawn) [Compound 30, (3-(2,6-dioxopiperidin-3-yl)-2-methylquinolin-7-yl)methyl (3-(tert-butyl)isoxazol-5-yl)carbamate]	> 50	< 10	< 10	500 to 1000	< 10	++++ (++++≥75% of viability of the HiBiT-GSPT1 HEK293 cells)
Cc1nc2cc(COC(=O)Nc3csc(-c4ccccc4)c3)ccc2cc1C1CCC(=O)NC1=O (stereo not drawn) [Compound 37, (3-(2,6-dioxopiperidin-3-yl)-2-methylquinolin-7-yl)methyl (5-phenylthiophen-3-yl)carbamate]	10 to 50	< 10	< 10	500 to 1000	< 10	++++ (++++≥75% of viability of the HiBiT-GSPT1 HEK293 cells)
Cc1nc2cc(COC(=O)Nc3ccc(N4CCOCC4)nc3)ccc2cc1C1CCC(=O)NC1=O (stereo not drawn) [Compound 42, (3-(2,6-dioxopiperidin-3-yl)-2-methylquinolin-7-yl)methyl (6-morpholinopyridin-3-yl)carbamate]	> 50	< 10	< 10	< 500	< 10	++++ (++++≥75% of viability of the HiBiT-GSPT1 HEK293 cells)

Second part, led by results:

activation at 1 µM [1] [%]	activation at 1 µM [2] [%]	activation at 1 µM [3] [%]	Ki [4] [nM]	activation at 1 µM [5] [%]	Compound	CTG assay Mean minimum (GSPT1-HiBiT HEK293 cells)
> 50	< 10	< 10	> 1000	< 10	Cc1ccc(NC(=O)OCc2cc(F)c3cc(C4CCC(=O)NC4=O)c(C)nc3c2)cc1Cl (stereo not drawn) [Compound 22, (3-(2,6-dioxopiperidin-3-yl)-5-fluoro-2-methylquinolin-7-yl)methyl (3-chloro-4-methylphenyl)carbamate]	++++ (++++≥75% of viability of the HiBiT-GSPT1 HEK293 cells)
10 to 50	< 10	< 10	< 500	< 10	Cc1ccc(NC(=O)NCc2ccc3cc(N4CCC(=O)NC4=O)c(C)nc3c2)cc1Cl [Compound 27, 1-(3-chloro-4-methylphenyl)-3-((3-(2,4-dioxotetrahydropyrimidin-1(2H)-yl)-2-methylquinolin-7-yl)methyl)urea]	++++ (++++≥75% of viability of the HiBiT-GSPT1 HEK293 cells)
10 to 50	< 10	< 10	500 to 1000	< 10	Cc1ccc(NC(=O)OCc2ccc3cc(N4CCC(=O)NC4=O)c(C)nc3c2)cc1Cl [Compound 28, (3-(2,4-dioxotetrahydropyrimidin-1(2H)-yl)-2-methylquinolin-7-yl)methyl (3-chloro-4-methylphenyl)carbamate]	++++ (++++≥75% of viability of the HiBiT-GSPT1 HEK293 cells)
10 to 50	10 to 25	25 to 50	< 500	< 10	Cc1ccc(NC(=O)OCc2ccc3nc(C)c(N4CCC(=O)NC4=O)cc3c2)cc1Cl [Compound 29, (3-(2,4-dioxotetrahydropyrimidin-1(2H)-yl)-2-methylquinolin-6-yl)methyl (3-chloro-4-methylphenyl)carbamate]	++++ (++++≥75% of viability of the HiBiT-GSPT1 HEK293 cells)
> 50	< 10	< 10	500 to 1000	< 10	Cc1ccc(NC(=O)CCc2ccc3cc(C4CCC(=O)NC4=O)c(C)nc3c2)cc1Cl (stereo not drawn) [Compound 32, N-(3-chloro-4-methylphenyl)-3-(3-(2,6-dioxopiperidin-3-yl)-2-methylquinolin-7-yl)propanamide]	++++ (++++≥75% of viability of the HiBiT-GSPT1 HEK293 cells)
< 10	< 10	< 10	> 1000	< 10	Cc1ccc(NC(=O)OCc2ccc3cc([C@@H]4CCC(=O)NC4=O)c(C)nc3c2)cc1Cl [Compound 38, (3-(2,6-dioxopiperidin-3-yl)-2-methylquinolin-7-yl)methyl (3-chloro-4-methylphenyl)carbamate]	++++ (++++≥75% of viability of the HiBiT-GSPT1 HEK293 cells)
> 50	< 10	< 10	500 to 1000	< 10	Cc1ccc(NC(=O)OCc2ccc3cc([C@H]4CCC(=O)NC4=O)c(C)nc3c2)cc1Cl [Compound 39, (3-(2,6-dioxopiperidin-3-yl)-2-methylquinolin-7-yl)methyl (3-chloro-4-methylphenyl)carbamate]	++++ (++++≥75% of viability of the HiBiT-GSPT1 HEK293 cells)
